The source of these data is patent US20240352016A1, “A CYCLIN-DEPENDENT KINASE INHIBITOR” (TAIZHOU EOC PHARMA CO., LTD., priority 2021, published 2024).

Counter-ions that a name gives are not always drawn. Some results are limits rather than exact numbers.

For one experiment, the system named is OVCAR3. Kind of experiment: Inhibition of cell proliferation (CyQuant), OVCAR3. It is filed as cell-based. The note with it: Homo sapiens, OVCAR-3; OVCAR3 ovarian cancer cell line, 120 hour, CyQuant assay kit. The protocol:
(§1) Exemplary compounds of the invention were tested at different concentrations (from 10 μM to 610 pM; 4-fold serial dilutions) for their ability to inhibit the proliferation of various cancer cell lines. Known kinase inhibitor staurosporine were used as positive controls. Cells were grown in the indicated media listed below. All cell lines were supplemented with FBS (Life Technologies) and 100 U-mL^−1 penicillin, 100 μg·mL^−1 streptomycin (Invitrogen) and cultured at 37° C. in a humidified chamber in the presence of 5% CO2. Proliferation assays were conducted over a 120 hour time period. CyQuant assay kit (ThermoFisher) was used to assess the anti-proliferative effects of the compounds following manufacturer's directions.
(§2) The following cancer cell lines may be tested with the exemplary media conditions indicated:
• OVCAR3: RPMI 1640+0.01 mg/mi bovine insulin+20% FBS+1% Glutamax
(§3) Exemplary results of these assays are set forth in Tables 3, where “A” represents an IC50 value of less than 0.2 μM; “B” represents an IC50 value of between 0.2 μM and 5 μM, inclusive; and “C” represents an IC50 value of greater than 5 μM. “NT” represents that the specified compound was not tested in the specified assay.

The target of another experiment is T1, CDK7/Cyclin H/MAT1 (Homo sapiens, UniProt P50613).
T1 construct: made in house; host or cells: insect cell
The experiment in a line: CDK kinase activity mobility shift assay (MSA). It is filed as biochemical. The note with it: The CDK may be CDK7; mobility shift assay, 2 mM ATP, 3 nM CDK/Cyclin, 27° C. for 40 min; read-out: IC50 (CDK inhibition). The protocol:
Human CDKs, cyclins and other partner proteins were expressed in insect cell, purified individually, reconstituted and then purified to homogeneity before being used for kinase activity assay.
Kinase activity of CDKs were determined by mobility shift assay (MSA), in which the formation of a phosphorylated fluorescence-labelled peptide in reaction mixture was monitored through capillary electrophoresis in a microfluidic environment. […] The mixtures were incubated at 27° C. for 40 min before being quenched with 4 μl 80 mM EDTA, then read on a LabChip EZ Reader II (Caliper Life Science). IC50 of compound for CDKs was calculated by Prism (GraphPad) using a four-parameter nonlinear curve fit.

Another experiment has as its system HCC70. Kind of experiment: Inhibition of cell proliferation (CyQuant), HCC70. The class given is cell-based. The note with it: Homo sapiens; HCC70 breast cancer cell line, 120 hour, CyQuant assay kit. The protocol: as §1, §2, §3

T1 sequence (P50613 whole entry): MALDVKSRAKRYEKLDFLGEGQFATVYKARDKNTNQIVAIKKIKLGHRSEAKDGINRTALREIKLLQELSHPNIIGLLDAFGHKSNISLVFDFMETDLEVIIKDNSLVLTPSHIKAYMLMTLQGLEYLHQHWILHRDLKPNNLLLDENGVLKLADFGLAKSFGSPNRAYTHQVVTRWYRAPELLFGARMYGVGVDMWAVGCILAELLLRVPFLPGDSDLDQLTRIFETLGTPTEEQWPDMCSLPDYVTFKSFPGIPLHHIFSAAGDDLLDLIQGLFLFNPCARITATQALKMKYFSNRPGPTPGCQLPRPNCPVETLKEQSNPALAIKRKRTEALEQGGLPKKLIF
T1 sequence (P51946 whole entry partner): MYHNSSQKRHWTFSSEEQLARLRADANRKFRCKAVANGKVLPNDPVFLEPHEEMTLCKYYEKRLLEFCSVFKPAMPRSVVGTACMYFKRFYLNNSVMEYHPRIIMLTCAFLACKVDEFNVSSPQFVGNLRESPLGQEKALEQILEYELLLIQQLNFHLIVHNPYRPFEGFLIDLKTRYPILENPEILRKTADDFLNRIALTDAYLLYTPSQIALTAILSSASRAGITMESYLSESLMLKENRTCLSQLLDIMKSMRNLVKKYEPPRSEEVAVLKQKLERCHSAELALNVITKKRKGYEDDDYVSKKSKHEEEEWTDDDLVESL
T1 sequence (P51948 whole entry partner): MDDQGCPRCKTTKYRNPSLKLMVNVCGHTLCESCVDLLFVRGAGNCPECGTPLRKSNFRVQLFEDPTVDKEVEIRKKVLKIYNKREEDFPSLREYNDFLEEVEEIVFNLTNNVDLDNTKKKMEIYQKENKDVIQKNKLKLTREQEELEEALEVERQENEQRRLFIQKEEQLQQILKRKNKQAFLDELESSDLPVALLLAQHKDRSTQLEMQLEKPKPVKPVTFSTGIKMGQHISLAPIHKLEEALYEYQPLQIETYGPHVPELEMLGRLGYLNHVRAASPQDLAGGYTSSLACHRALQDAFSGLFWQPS

Turning to `CCn1cnc2c(NCc3ccccc3-n3cccn3)nc(N3CCC(N)CC3)nc21` [Compound I-7, N-(2-(1H-pyrazol-1-yl)benzyl)-2-(4-aminopiperidin-1-yl)-9-ethyl-9H-purin-6-amine hydrochloride], the IC50 is 200 to 5000 nM in the experiment on OVCAR3, less than 100 nM on CDK7/Cyclin H/MAT1 and 200 to 5000 nM in the experiment with HCC70.
As to `CNC1CCN(c2nc(NCc3ccccc3-n3cccn3)c3ncn(C(C)C)c3n2)CC1` [Compound I-19, N-(2-(1H-pyrazol-1-yl)benzyl)-9-isopropyl-2-(4-(methylamino)piperidin-1-yl)-9H-purin-6-amine], the values for the IC50 with OVCAR3, at CDK7/Cyclin H/MAT1 and in the experiment on HCC70 were less than 200 nM, less than 100 nM and less than 200 nM, respectively.
With `CC(C)n1cnc2c(NCc3ccccc3-n3ccc(C(C)(C)O)n3)nc(N3CCC(N)CC3)nc21` [Compound I-16, 2-(1-(2-(((2-(4-aminopiperidin-1-yl)-9-isopropyl-9H-purin-6-yl)amino)methyl)phenyl)-1H-pyrazol-3-yl)propan-2-ol], the IC50 in the experiment on OVCAR3 was less than 200 nM; at CDK7/Cyclin H/MAT1, less than 100 nM; in the experiment on HCC70, less than 200 nM.
On to `CC(C)N1CCN(c2ccn(-c3ccccc3CNc3nc(N4CCC(N)CC4)nc4c3ncn4C(C)C)n2)CC1` [Compound I-4, 2-(4-aminopiperidin-1-yl)-9-isopropyl-N-(2-(3-(4-isopropylpiperazin-1-yl)-1H-pyrazol-1-yl)benzyl)-9H-purin-6-amine hydrochloride], for which the IC50 in the experiment with OVCAR3 was less than 200 nM; on CDK7/Cyclin H/MAT1, less than 100 nM; in the experiment with HCC70 it was less than 200 nM.
In the case of `CC(C)n1cnc2c(NCc3ccccc3-n3ccc(C(=O)N4CCN(C)CC4)n3)nc(N3CCC(N)CC3)nc21` [Compound I-3, (1-(2-(((2-(4-aminopiperidin-1-yl)-9-isopropyl-9H-purin-6-yl)amino)methyl)phenyl)-1H-pyrazol-3-yl)(4-methylpiperazin-1-yl)methanone], the IC50 is 200 to 5000 nM in the experiment with OVCAR3, less than 100 nM on CDK7/Cyclin H/MAT1 and 200 to 5000 nM with HCC70.
As to `CC(C)n1cnc2c(NCc3ccccc3-n3cccn3)nc(N3CCC[C@H](N)C3)nc21` [Compound I-10, (S)—N-(2-(1H-pyrazol-1-yl)benzyl)-2-(3-aminopiperidin-1-yl)-9-isopropyl-9H-purin-6-amine], the IC50 was 200 to 5000 nM with OVCAR3, less than 100 nM on CDK7/Cyclin H/MAT1 and 200 to 5000 nM with HCC70.
Consider `CC(C)n1cnc2c(NCc3ccccc3-c3cnn(C)c3)nc(N3CCC(N)CC3)nc21` [Compound I-8, 2-(4-aminopiperidin-1-yl)-9-isopropyl-N-(2-(1-methyl-1H-pyrazol-4-yl)benzyl)-9H-purin-6-amine], for which the IC50 with OVCAR3 was less than 200 nM; on CDK7/Cyclin H/MAT1 it was less than 100 nM; in the experiment on HCC70, 200 to 5000 nM.
The like results for `CC(C)n1cnc2c(NCc3ccccc3-n3ccc(C(=O)N4CCN(CCO)CC4)n3)nc(N3CCC(N)CC3)nc21` [Compound I-2, (1-(2-(((2-(4-aminopiperidin-1-yl)-9-isopropyl-9H-purin-6-yl)amino)methyl)phenyl)-1H-pyrazol-3-yl)(4-(2-hydroxyethyl)piperazin-1-yl)methanone] were, in that order, 200 to 5000 nM, less than 100 nM and 200 to 5000 nM.
The like results for `CC(C)n1cnc2c(NCc3ccccc3-c3ccnn3C)nc(N3CCC(N)CC3)nc21` [Compound I-12, 2-(4-aminopiperidin-1-yl)-9-isopropyl-N-(2-(1-methyl-1H-pyrazol-5-yl)benzyl)-9H-purin-6-amine] were, in that order, less than 200 nM, less than 100 nM and less than 200 nM.
The like results for `CC(C)n1nccc1-c1ncccc1CNc1nc(N2CCC(N)CC2)nc2c1ncn2C(C)C` [Compound I-6, 2-(4-aminopiperidin-1-yl)-9-isopropyl-N-((2-(1-isopropyl-1H-pyrazol-5-yl)pyridin-3-yl)methyl)-9H-purin-6-amine] were, in that order, less than 200 nM, less than 100 nM and less than 200 nM.

A word on the IC50: it is the midpoint of a concentration-inhibition curve.
